Measured values from article PMC11578313, “Miniaturized Modular Click Chemistry‐enabled Rapid Discovery of Unique SARS‐CoV‐2 M^pro Inhibitors With Robust Potency and Drug‐like Profile” (Advanced Science, 2024).
Values joined by “and” are separate entries in the source; they are usually repeats but may differ in a detail not shown here. Identical values can stand only once. Like-named read-outs stand apart in the source and are kept apart here.

Legend:
[1] = system: MERS‐CoV; assay: microbe, parasite or virus in culture; assay type: cell-based
[2] = system: Kunming mice; assay: Acute toxicity experiment; assay type: in vivo
Method: The acute and subacute toxicity of C5N17B were assessed in Kunming mice. In the acute toxicity study, one group received an oral dose of 500 mg kg^−1 of C5N17B. In the subacute toxicity study, a different group was administered a lower dose of 50 mg kg^−1 of C5N17B. Each experimental set included a control group that received only the vehicle treatment.
Kunming mice were group housed both during acclimation and the study period. The animal room environment was controlled to maintain specific target conditions, including a temperature range of 20 °C to 25 °C, relative humidity levels between 40% and 70%, and an alternating schedule of artificial light for 12 h followed by 12 h of darkness. The age of Kunming mice in the acute/subacute toxicity study was 3–4 weeks, and the body weights were ≈20 g. All animal experiments related to this study were approved by the ethics committee of Cheeloo College of Medicine (approval No. 230014), Shandong University (Jinan, China) Procedures performed in the studies were guided by the ethical standards of the institution.
A group of Kunming mice (comprising three males and three females) was supplied by the Animal Experimental Center of Shandong University. […]

[3] = system: HCoV‐NL63; assay: microbe, parasite or virus in culture; assay type: cell-based; details: Human coronavirus NL63, LLC-MK2, read-out: EC50 ± SD, HCoV‐NL63
[4] = system: SARS‐CoV‐2 Omicron (hCoV‐19/Korea/KDCA447321/2021); assay: microbe, parasite or virus in culture; assay type: cell-based; details: Severe acute respiratory syndrome coronavirus 2, Calu-3, read-out: EC50 ± SD, SARS‐CoV‐2 Omicron
[5] = Cytotoxicity assay (MTT) in MRC‐5 cells; details: human
[6] = for Plasma concentration (Calculated Concentration): mouse plasma
[7] = system: SARS‐CoV‐2 (hCoV‐19/Korea/KCDC06/2020, wild type); assay: microbe, parasite or virus in culture; assay type: cell-based
[8] = C5N17B+Ritonavir, PO 10 mg/kg, individual mice 1#-3#, 10 mg/kg
[9] = C5N17B+Ritonavir, po 10 mg/kg, based on predicted Clast, individual mice, 10 mg/kg
[10] = C5N17B+Ritonavir, po 10 mg/kg, dose-normalised, individual mice, 10 mg/kg
[11] = C5N17B+Ritonavir, po 10 mg/kg, non-compartmental output, individual mice, 10 mg/kg

With `Cc1cncc(C(=O)N2C[C@H]3CC[C@@H](C2)N3[C@H](c2cccc(F)c2)c2cn(CCc3ccsc3)nn2)c1` [Compound C5N17B] the “EC50 ± SD, MERS‐CoV” value [1] was “failed to inhibit”, the EC50 ([1]; Middle East respiratory syndrome-related coronavirus, Huh-7, read-out: EC50 ± SD, MERS‐CoV) was over 100000 nM and the “body weight compared to the control group, acute toxicity” value ([2]; 500 mg kg^−1, 7 days) was “no significant changes in body weight”. For the same compound, the “fatalities or abnormal behavior, acute toxicity” value ([2]; oral dose of 500 mg kg^−1, Kunming mice) was “No fatalities or abnormal behavior”, the EC50 [3] was over 100000 nM and the EC50 [4] was 135 ± 3 nM. The CC50 at 5 day [5] was over 100000 nM, the CC50 at 6 day [5] was over 100000 nM and the “AUC0-∞” value [6, 8] was 13462 ng·h/mL and 18653 ng·h/mL. For the same compound, the AUC(0-t) [6, 8] was 13105 ng·h/mL and 11834 ng·h/mL, the Cmax [6, 8] was 2150 ng/mL and 2470 ng/mL and the MRT0-t [6, 8] was 3.43 h and 3.39 h. For the same compound, the “MRT0-∞” value [6, 8] was 3.03 h and 3.63 h and 7.98 h, the T1/2 [6, 8] was 1.87 h and 2.03 h and 5.52 h and the “Plasma concentration (Calculated Concentration)” value ([6]; C5N17B+Ritonavir, PO 10 mg/kg, 5 min (5min), individual mice, 10 mg/kg) was 861 ng/mL and 439 ng/mL. For the same compound, the “Plasma concentration (Calculated Concentration)” value ([6]; C5N17B+Ritonavir, PO 10 mg/kg, 0.5 h (30min), individual mice, 10 mg/kg) was 1220 ng/mL and 1720 ng/mL, the “Plasma concentration (Calculated Concentration)” value ([6]; C5N17B+Ritonavir, PO 10 mg/kg, 1 h, individual mice, 10 mg/kg) was 1750 ng/mL and 1960 ng/mL and the “Plasma concentration (Calculated Concentration)” value ([6]; C5N17B+Ritonavir, PO 10 mg/kg, 2 h, individual mice, 10 mg/kg) was 2270 ng/mL and 2140 ng/mL. For the same compound, the “Plasma concentration (Calculated Concentration)” value ([6]; C5N17B+Ritonavir, PO 10 mg/kg, 4 h, individual mice, 10 mg/kg) was 1920 ng/mL and 2150 ng/mL, the AUCINF_pred [6, 9] was 13994.4 ng·h/mL and 18824.1 ng·h/mL and the Cl_F_pred [6, 9] was 15.3694 mL/min/kg and 11.9096 mL/min/kg and 8.85392 mL/min/kg. The MRTINF_pred [6, 9] was 3.269 h and 3.905 h and 8.0548 h, the Vz_F_pred [6, 9] was 2.48776 L/kg and 2.09319 L/kg and 4.22695 L/kg and the AUCINF_D_pred ([6]; C5N17B+Ritonavir, po 10 mg/kg, dose-normalised, based on predicted Clast, individual mice, 10 mg/kg) was 1084.41 kg·ng·h/mL/mg and 1399.44 kg·ng·h/mL/mg and 1882.41 kg·ng·h/mL/mg. For the same compound, the AUCINF_D_obs [6, 10] was 1039.52 kg·ng·h/mL/mg and 1346.22 kg·ng·h/mL/mg and 1865.31 kg·ng·h/mL/mg, the AUClast_D [6, 10] was 968.565 kg·ng·h/mL/mg and 1310.48 kg·ng·h/mL/mg and 1183.41 kg·ng·h/mL/mg and the Cmax_D [6, 10] was 227 kg·ng/mL/mg and 215 kg·ng/mL/mg and 247 kg·ng/mL/mg. The Tlag ([6]; C5N17B+Ritonavir, po 10 mg/kg, non-compartmental output, individual mice) was 0 h, the AUCINF_obs [6, 11] was 13462.2 ng·h/mL and 18653.1 ng·h/mL and the AUCall [6, 11] was 13104.8 ng·h/mL and 11834.1 ng·h/mL. For the same compound, the AUClast [6, 11] was 13104.8 ng·h/mL and 11834.1 ng·h/mL, the AUMClast [6, 11] was 25373.2 h*h*ng/ml and 44928.8 h*h*ng/ml and 40086.7 h*h*ng/ml and the Cl_F_obs [6, 11] was 12.3804 mL/min/kg and 8.93505 mL/min/kg. The Cmax [6, 11] was 2150 ng/mL and 2470 ng/mL, the HL_Lambda_z [6, 11] was 1.87 h and 2.03 h and 5.515 h and the Lambda_z [6, 11] was 0.3707 h⁻¹ and 0.3414 h⁻¹ and 0.1257 h⁻¹. The MRTINF_obs [6, 11] was 3.035 h and 3.628 h and 7.982 h, the MRTlast [6, 11] was 3.428 h and 3.387 h and the Tlast [6, 11] was 6 h and 8 h. For the same compound, the Vz_F_obs [6, 11] was 2.5952 L/kg and 2.17594 L/kg and 4.26569 L/kg, the Clast_pred ([6]; C5N17B+Ritonavir, po 10 mg/kg, predicted from terminal fit, individual mice, 10 mg/kg) was 429.412 ng/mL and 303.677 ng/mL and 878.481 ng/mL and the “plasma exposure (AUC0‐t) with ritonavir higher than when administered alone” value ([6]; p.o. 10 mg kg^−1) was about 300 fold. It also gave an EC50 ([7]; Severe acute respiratory syndrome coronavirus 2, Calu-3, Calu‐3, read-out: EC50 ± SD, SARS‐CoV‐2 Wild‐type) of 119 ± 11 nM and an EC50 ([7]; Severe acute respiratory syndrome coronavirus 2, Calu-3, Calu‐3 cells, racemate, enantiomers and […] measured in the same system, read-out: EC50, anti‐SARS‐CoV‐2 activity in Calu‐3 cells (Figure 3B)) of 78 nM.
